The results in this text go back to patent US20240239811A1, “5-(5-(PIPERIDIN-4-YL)THIENO[3,2-C]PYRAZOL-2-YL]INDAZOLE DERIVATIVES AND RELATED COMPOUNDS AS MODULATORS FOR SPLICING NUCLEIC ACIDS AND FOR THE T” (REMIX THERAPEUTICS INC., priority 2020, published 2024).

Holding throughout (assay type): cell-based
For one test, the system named is HTT mRNA. The test is described as follows: Splicing assay (RT-qPCR) monitoring HTT splice variants, canonical (CJ) and alternative (AJ) junction. To be noted: 50% response, A673 or K562 cell line, 24 hours; for IC50: decrease in CJ mRNA; for AC50: increase in AJ mRNA. In a few lines:
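A673 or K562 cells were treated 24 h with an 11-point 3-fold dilution series (top 10 uM, ≤0.25% DMSO) at 37 °C. HTT canonical- and alternative-junction mRNAs were quantified in lysates by one-step RT-qPCR. Values were normalized to PPIA (A673) or GAPDH/GUSB (K562).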
Background: In qPCR the cycle at which signal appears reflects the starting amount.

The next test relates to HTT CJ mRNA. The test is described as follows: Gene panel canonical junction qPCR assay, HTT. To be noted: Table 6, decrease in CJ mRNA, read-out: HTT IC50 (decrease in CJ mRNA levels). In a few lines: (§1)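 A673 or K562 cells treated 24 h at 37° C with 11-point 3-fold dilutions, top 10 uM, DMSO ≤0.25%. CJ mRNA quantified by RT-qPCR with exon-junction-spanning probeset, ΔΔCt vs housekeeping gene (GAPDH, GUSB or PPIA) and DMSO control. IC50 from 4-parameter fit of percentage CJ decrease.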

The subject of the next test is SMN2 CJ mRNA. The test is described as follows: Gene panel canonical junction qPCR assay, SMN2. To be noted: Table 6, decrease in CJ mRNA, read-out: SMN2 IC50 (decrease in CJ mRNA levels). In a few lines:
as §1

In another test the test system is Target C CJ mRNA. Nature of the test: Gene panel canonical junction qPCR assay, Target C. To be noted: Table 6, decrease in CJ mRNA, read-out: Target C IC50 (decrease in CJ mRNA levels). The method, boiled down:
as §1

SMILES strings stand for the structures.

By IC50 is commonly meant the concentration that inhibits the measured activity by half. In general, AC50 refers to the concentration giving half of the maximal activity seen. Higher therefore signals weaker potency. On to `Cn1cc2cc(-c3nc4sc(N5CCC(NC(C)(C)C)C5)cc4s3)cc(F)c2n1` (centres unmarked) [Compound 143, N-tert-butyl-1-[2-(7-fluoro-2-methylindazol-5-yl)thieno[2,3-d][1,3]thiazol-5-yl]pyrrolidin-3-amine], for which the IC50 lay in the range of 1000 to 10000 nM with HTT mRNA, 1000 to 10000 nM in the test on HTT CJ mRNA, 100 to 1000 nM in the test with SMN2 CJ mRNA and 1000 to 10000 nM with Target C CJ mRNA. The AC50 in the test with HTT mRNA lay in the range of 1000 to 10000 nM.

For `CCNC1CCN(c2cc3sc(-c4cc(F)c5nn(C)cc5c4)nc3s2)CC1` [Compound 137, N-ethyl-1-[2-(7-fluoro-2-methylindazol-5-yl)thieno[2,3-d][1,3]thiazol-5-yl]piperidin-4-amine], the IC50 with HTT mRNA was 100 to 1000 nM; in the test on HTT CJ mRNA, 100 to 1000 nM; in the test with SMN2 CJ mRNA it was below 100 nM; in the test on Target C CJ mRNA, 100 to 1000 nM. The same molecule had a half-maximal activity concentration (AC50) in the test with HTT mRNA of 100 to 1000 nM.

Turning to `Cn1cc2cc(-n3cc4sc(C5CCNCC5)cc4n3)c(O)cc2n1` [Compound 178], the IC50 in the test with HTT mRNA, in the test with HTT CJ mRNA, in the test with SMN2 CJ mRNA and in the test with Target C CJ mRNA was 1000 to 10000 nM each time. In the test with HTT mRNA, this molecule yielded an AC50 of 1000 to 10000 nM.

`Cc1cn2cc(-n3cc4sc(C5CCNCC5)cc4n3)cc(C)c2n1` [Compound 173]: the IC50 in the test with HTT mRNA was 1000 to 10000 nM; in the test with HTT CJ mRNA, 1000 to 10000 nM; in the test with SMN2 CJ mRNA it was 1000 to 10000 nM; with Target C CJ mRNA, above 10000 nM. In the test on HTT mRNA, the AC50 fell in the range of 1000 to 10000 nM.

In the case of `Cn1cc2cc(-c3cc4cn(C5=CCOCC5)nc4s3)cc(F)c2n1` [Compound 177], the IC50 with HTT mRNA, in the test with HTT CJ mRNA, in the test on SMN2 CJ mRNA and in the test on Target C CJ mRNA was above 10000 nM in each case. In addition, in the test with HTT mRNA, the half-maximal activity concentration (AC50) was above 10000 nM.

As for `Cc1cn2nc(-n3cc4sc(N5CCC(NC(C)(C)C)C5)cc4n3)cc(C)c2n1` (centres unmarked) [Compound 189, N-tert-butyl-1-(2-{2,8-dimethylimidazo[1,2-b]pyridazin-6-yl}thieno[3,2-c]pyrazol-5-yl) pyrrolidin-3-amine], the IC50 in the test with HTT mRNA is above 10000 nM; in the test with HTT CJ mRNA, above 10000 nM; with SMN2 CJ mRNA, 1000 to 10000 nM; with Target C CJ mRNA, above 10000 nM. Besides, the AC50 with HTT mRNA is above 10000 nM.

Consider `Cc1cn2cc(-c3nc4sc(C5CCNCC5)cc4s3)cc(Cl)c2n1` [Compound 139], for which the IC50 in the test on HTT mRNA, in the test on HTT CJ mRNA, in the test on SMN2 CJ mRNA and in the test with Target C CJ mRNA was below 100 nM throughout. Besides, in the test on HTT mRNA, the concentration at half-maximal activity (AC50) was below 100 nM.

In the case of `Cn1cc2cc(-c3nc4sc(N5CCC6(CCN6)C5)cc4s3)cc(F)c2n1` (centres unmarked) [Compound 233, 5-(5-{1,6-diazaspiro[3.4]octan-6-yl}thieno[2,3-d][1,3]thiazol-2-yl)-7-fluoro-2-methylindazole], the IC50 in the test with HTT mRNA is 1000 to 10000 nM; in the test on HTT CJ mRNA, 1000 to 10000 nM; with SMN2 CJ mRNA, below 100 nM; with Target C CJ mRNA, 1000 to 10000 nM. This molecule also gave a concentration at half-maximal activity (AC50) in the test with HTT mRNA of 1000 to 10000 nM.

Turning to `COc1c(-c2nc3sc(C4CCNCC4)cc3s2)cc(F)c2nn(C)cc12` [Compound 237, 7-fluoro-4-methoxy-2-methyl-5-[5-(piperidin-4-yl)thieno[2,3-d][1,3]thiazol-2-yl]indazole], the half-maximal inhibitory concentration (IC50) in the test with HTT mRNA, in the test on HTT CJ mRNA, with SMN2 CJ mRNA and in the test on Target C CJ mRNA was above 10000 nM throughout. The molecule further came in with an AC50 in the test on HTT mRNA above 10000 nM.

As for `Cc1cn2nc(-n3cc4sc(C5CCNCC5)cc4n3)cc2c(C)n1` [Compound 171], the IC50 in the test on HTT mRNA lay in the range of 100 to 1000 nM; in the test with HTT CJ mRNA, 100 to 1000 nM; in the test with SMN2 CJ mRNA, 100 to 1000 nM; in the test on Target C CJ mRNA, 1000 to 10000 nM. In addition, in the test with HTT mRNA, the AC50 lay within 100 to 1000 nM.

As to `Cc1cn2cc(-n3cc4sc(C5CCNCC5)cc4n3)cc(F)c2n1` [Compound 166, 4-(2-{8-fluoro-2-methylimidazo[1,2-a]pyridin-6-yl}thieno[3,2-c]pyrazol-5-yl)piperidine], the IC50 in the test on HTT mRNA was 100 to 1000 nM; in the test with HTT CJ mRNA, 100 to 1000 nM; with SMN2 CJ mRNA, 100 to 1000 nM; with Target C CJ mRNA, 1000 to 10000 nM. The molecule further had an AC50 in the test on HTT mRNA of 100 to 1000 nM.

Regarding `Cn1cc2cc(-c3cc4cn(C5CCNCC5)nc4s3)ncc2n1` [Compound 214], the concentration for half-maximal inhibition (IC50) with HTT mRNA is 1000 to 10000 nM; in the test with HTT CJ mRNA, 1000 to 10000 nM; in the test with SMN2 CJ mRNA, 100 to 1000 nM; in the test with Target C CJ mRNA, 1000 to 10000 nM. The AC50 in the test with HTT mRNA fell in the range of 100 to 1000 nM.

As for `Cc1cc(-c2nc3sc(C4CCNCC4)cc3s2)cc2cn(C)nc12` [Compound 238, 2,7-dimethyl-5-[5-(piperidin-4-yl)thieno[2,3-d][1,3]thiazol-2-yl]indazole], the half-maximal inhibitory concentration (IC50) in the test on HTT mRNA is below 100 nM; with HTT CJ mRNA, below 100 nM; in the test with SMN2 CJ mRNA, below 100 nM; in the test with Target C CJ mRNA it was 100 to 1000 nM. The molecule also showed an AC50 in the test on HTT mRNA below 100 nM.
